Source: US9456589B2, “Elasmobranch-repelling compounds and methods of use” (priority 2005, dated 2016)
“And” between values parts separate entries of the source, which are not always exact repeats. Equal values may be shown once. “Also recorded” adds a separate entry of the source. Read-outs that look alike come from different tables or passages of the source.

Assays:
[1] = tested on: lemon sharks; test: Tonic immobility, Micropipette Assay; assay type: in vivo, N. brevirostris; conditions: for Comments (behavior observed): lemon / juvenile sharks, micropipette
Protocol: (§1) One bioassay used to observe and measure flight response is the tonic immobility test. Tonic immobility is a state of paralysis that typically occurs when a shark is subject to inversion of its body along the longitudinal axis. This state is called “tonic,” and the shark can remain in this state for up to 15 minutes thereby allowing researchers to observe effects of chemical repellents. The “tonic” state of the shark is first established by releasing seawater in proximity to the “tonic” shark with the same delivery instrument and at the same distance as a “test” repellent compound will be released. Some controls are released with a high flow rate (30 mL/sec) in order to establish that sharks are not awakened by a jet of fluid over their noses. Once behavioral controls are established, a compound or composition that may have a repelling effect is delivered to the shark. If the compound or composition engenders a flight response, the shark will awaken from the tonic state and rapidly attempt to flee the delivered repellent. Using this tonic immobility bioassay researches can quantify the strength of a repellent effect.
A fourth method of delivery was called the “Micropipette Assay” method of delivery. In this method, a very small dose (fraction of a mL) of a test substance was delivered directly into a shark's mouth. […] A response, such as a cough or other notable action of the shark, was usually noted when effective gustatory repellents were delivered directly into a shark's mouth while in tonic immobility.
The Micropipette Assay method has not proven to be a particularly effective method of assaying for a flight response in elasmobranchs. The Micropipette Assay method is, nevertheless, an excellent method for specifying that a gustatory response has occurred. It is effective for specifying a gustatory response because the micropipette delivery method allows direct delivery of an entire bolus of test substance into the mouth of the shark being tested.
Using a microliter syringe or microliter pipette, a bolus of test chemical can be directed precisely into one of the shark's nares, or its mouth. […] Olfactory repellents will terminate tonic immobility almost immediately when injected into a nare of the shark.
(§2) Lemon, nurse, blacktip and tiger sharks were placed in tonic immobility by inverting the shark's body along its longitudinal axis. […] The “tonic” state of each shark was first established by releasing a control of seawater in proximity to the shark with the same delivery instrument and at the same distance as the chemical repellent would later be delivered. In certain controls, sea water was released with a high flow rate (30 mL/sec) in order to establish that the sharks would not be awakened by a jet of fluid over their noses.
(§3) Once behavioral controls were established, the chemical repellent was delivered to the shark using the Hd Syringe Assay method, the Syringe 3/5/10 Assay method, the Bite Assay method or the Micropipette Assay method. […] If tonic immobility was terminated, the positive response was denoted as “Y.” If tonic immobility was not terminated but a behavior change within tonic immobility was noted, such as the opening of the mouth or a cough, the response was denoted as an “R” for reduced response. If no behavior change was observed, the negative response was denoted “N.”
Further because the Micropipette assays were often done serially on the same set of sharks, second and third doses of the repellent over time would be expected to evoke less of a reaction. Nevertheless, the small doses delivered to the shark in the Micropipette assay provide important data on whether a compound is a gustatory stimulant because the small dose may be delivered directly into the mouth of the shark. This eliminates any olfactory response that might be acting in concert with a gustatory response to terminate tonic immobility.

[2] = tested on: juvenile sharks; test: Initial tonic immobility assays, mouth delivery by micropipette or syringe; assay type: in vivo; conditions: introduced to the mouth using a micropipette or syringe
[3] = tested on: sharks (lemon, nurse, tiger pooled); test: Tonic immobility, Hd Syringe Assay, summary over species; assay type: in vivo; conditions: species pooled
Protocol: as §1
In Hd-Syringe Assays, the 3-methylbutanal was delivered to the shark's mouth and nares using a 3 mL hypodermic syringe fitted with a 22 gauge needle. The needle was held within 3 inches of the shark's mouth and the test repellent was slowly released from the syringe with a very fine plume in the water column. Any response was denoted. If a response occurred during a measurable time after delivery of the test chemical, the time between delivery and response was noted. If a response occurred immediately or the response occurred before a measurable time could be established, no time to response was noted.

[4] = tested on: lemon sharks; test: Tonic immobility, Syringe Assay; assay type: in vivo, N. brevirostris
Protocol: as §1
(§4) A second delivery method called the “Syringe Assay” method delivered a dose of 60 mL or more of a test chemical repellent from at least one foot, and up to as many as five feet, from a shark. The distance of delivery was determined based on the strength of the water current in the direction of the shark. Time from delivery of the test substance until response was observed, measured and recorded. The “Syringe” method allows a researcher to observe how a diffusing and diluting cloud of test chemical repellent affects the shark's behavior when the shark encounters the delivered cloud of test substance. The “Syringe” method requires relatively large doses because of the diffusion of the cloud over time and distance. Time from delivery to response is related to the size of the bolus delivered from the syringe, distance of the shark from the syringe and water current.
as §2, §3
(§5) In the Syringe assay about 60 mL or more of valeraldehyde was delivered from one to as many as five feet from the shark depending on the water current. […] Time from delivery to response was related to the size of the bolus delivered from the syringe, distance of the shark from the syringe and water current.

[5] = tested on: nurse sharks; test: Tonic immobility, Syringe Assay; assay type: in vivo, C. cirratum
[6] = tested on: sharks (lemon, nurse, blacknose, blacktip pooled); test: Tonic immobility, Syringe Assay, summary over species; assay type: in vivo
Protocol: as §1, §4, §5

[7] = tested on: sharks (species pooled); test: Tonic immobility, total of delivery methods not including Micropipette assays; assay type: in vivo; conditions: species and delivery methods pooled
Protocol: as §1
Table 1, which summarizes the data in Tables 14 and 15, evidences the gustatory repellent characteristics of methylbutanals. In 35 of 36 assays (combining columns “Y” and “R” under the column labeled “Total (Not including Micropipette Assays)” to arrive at a 97% effectiveness rate), including assays on lemon, nurse, tiger and blacktip sharks, the gustatory repellent activity of 3-methylbutanal was established. In 81% of assays, tonic immobility was fully terminated. […] In only a single assay did a shark not respond to treatment with 3-methylbutanal.

[8] = tested on: Caribbean reef sharks and blacknose sharks; test: Cage Assay on free-swimming sharks; assay type: in vivo, C. perezii, C. acronotus; conditions: for Cage Y (repellent activity), trials of trials: 500 mL delivered at baited cage; for number of strikes at the baited cage / return of sharks / interactions with the baited cage after 10 minutes: 500 mL of 50% w/w in diethylene glycol monoethyl ether
Excerpt: Another bioassay used to observe a flight response in sharks is a free-swimming test using a small metal cage containing bait. This assay is referred to as a “Cage Assay.” The cage with bait is suspended below a float in the water column. A ⅜ inch diptube is secured from the cage to the boat and carried chemical compounds to the proximity of the cage where the test substances were delivered. Sharks are drawn to the vicinity of the boat with chum. Sharks are observed to immediately bump and bite at the cage wherein bait was contained. The number of interactions between the sharks and the cage are recorded over time. Test chemical repelling substance is delivered to the vicinity of the cage through the diptube. The frequency of bumps and strikes by sharks against the cage is then monitored and recorded. If bumps and strikes by sharks cease for a period of time, that time period is also recorded. In the free-swim ring tests disclosed herein using a baited cage, the volume of test chemical repellent delivered into the vicinity of the cage was about 500 mL.
A series of chemical repellent tests on free-swimming Caribbean reef sharks (C. perezii) and blacknose sharks (C. acronotus) was performed in tropical waters. A small metal cage containing bait was suspended below a float in the water column. A ⅜″ ID HDPE diptube was secured from the cage to the boat, so that chemical compounds could be transported to the cage's proximity. Sharks were stimulated using bunker chum in bags.
The number of interactions was recorded using an underwater pole-camera.

Cc1cccnc1N [2-amino-3-picoline 95%, 2-amino-3-picoline]
Comments (behavior observed) [1]: violent seizure; also recorded: VIOLENT/SEIZURE | Comments (behavior observed) ([1]; listed as aminopicoline): violent responses | Micropipette assays terminating tonic immobility ([1]; lemon sharks): one | Micropipette assays with a response ([1]; lemon sharks): two of two

Cc1ncccc1N [3-amino-2-picoline]
result of initial tonic immobility assays [2]: terminated tonic immobility

Cc1cccnc1 [3-methylpyridine]
Hd-Syringe Y (termination of tonic immobility), trials of trials [3]: three of three and 3/3 | result of initial tonic immobility assays [2]: terminated tonic immobility

CCCC=O [Butyraldehyde, butyraldehyde]
Syringe assays terminating tonic immobility (text) [4]: resulting in termination of tonic immobility | Syringe assays terminating tonic immobility (text) [5]: two | Syringe assays with no response [5]: one | Syringe Y (termination of tonic immobility), trials of trials [6]: 4/4 | Syringe Y (termination of tonic immobility), trials of trials ([6]; listed as butyraldehyde): 4 of 5 | Total (Not including Micropipette assays / Effective Delivery Methods) Y, trials of trials [7]: 4/4 | Total Y, percent of trials [7]: 100%

CC(C)c1ccc(C=O)cc1 [Cuminaldehyde, cuminaldehyde]
Syringe assays terminating tonic immobility (text) [4]: resulted in termination of tonic immobility | Syringe Y (termination of tonic immobility), trials of trials [6]: 1/1 | Syringe Y (termination of tonic immobility), trials of trials ([6]; listed as cuminaldehyde): terminated | Total (Not including Micropipette assays / Effective Delivery Methods) Y, trials of trials [7]: 1/1

CC(=O)/C=C/C1C(C)=CCCC1(C)C (stereo not drawn) [Ionone, alpha-ionone]
Cage Y (repellent activity), trials of trials [8]: 1/1 | number of strikes at the baited cage ([8]; listed as alpha-ionone): reduced | return of sharks / interactions with the baited cage after 10 minutes ([8]; listed as alpha-ionone): interactions continued after a 10 minute period | number of strikes at the baited cage ([8]; listed as ionone): decrease in the number of strikes | return of sharks / interactions with the baited cage after 10 minutes ([8]; listed as ionone): lull in feeding for 10 minutes

O=Cc1ccc2c(c1)OCO2 [Piperonal, piperonal]
Cage Y (repellent activity), trials of trials [8]: 1/1 | number of strikes at the baited cage [8]: decrease in the number of strikes; also recorded: dramatically reduced | return of sharks / interactions with the baited cage after 10 minutes [8]: did not return; also recorded: interactions ceased | Total (Not including Micropipette assays / Effective Delivery Methods) Y, trials of trials [7]: 1/1

Cc1ccc(C=O)cc1 [Tolualdehyde, p-tolualdehyde]
Syringe assays terminating tonic immobility (text) ([4]; listed as p-tolualdehyde): termination of tonic immobility | Syringe assays terminating tonic immobility (text) ([4]; listed as tolualdehyde): terminated | Syringe Y (termination of tonic immobility), trials of trials [6]: 1/1

COc1cc(CCC(C)=O)ccc1O [Zingerone, zingerone]
Cage Y (repellent activity), trials of trials [8]: 1/1 | number of strikes at the baited cage [8]: decrease in the number of strikes; also recorded: reduced | return of sharks / interactions with the baited cage after 10 minutes [8]: lull in feeding for 10 minutes; also recorded: interactions continued after a 10 minute period

Cc1ccccn1 [alpha-picoline, 2-methylpyridine]
result of initial tonic immobility assays [2]: terminated tonic immobility

Cc1cc(=O)n(-c2ccccc2)n1C [antipyrine solution, antipyrine]
Micropipette assays with a response ([1]; lemon sharks): a response was observed; also recorded: evoked a response in one assay | Micropipette assays with no response ([1]; lemon sharks): no response; also recorded: did not evoke a response in another

Cc1cc(C)nc(C)c1 [collidine]
result of initial tonic immobility assays [2]: terminated tonic immobility

CCCCCCCCCC=O [decanal]
Syringe assays terminating tonic immobility (text) [4]: terminated | Syringe assays terminating tonic immobility (text) [5]: terminated | Syringe Y (termination of tonic immobility), trials of trials [6]: 1/1

Cc1ccncc1 [gamma-picoline, 4-methylpyridine]
result of initial tonic immobility assays [2]: terminated tonic immobility

CCCCCCC=O [heptanal]
Syringe assays with no response [4]: no response | Syringe N (no response), trials of trials [6]: no response and 1/1

Cc1cccc(C)n1 [lutidine]
result of initial tonic immobility assays [2]: terminated tonic immobility

CC(=O)C=C(C)C [mesityl oxide]
Syringe assays terminating tonic immobility (text) [4]: terminated | Syringe Y (termination of tonic immobility), trials of trials [6]: 1/1

CCCCCCCCC=O [nonanal]
Syringe assays terminating tonic immobility (text) [4]: terminated | Syringe Y (termination of tonic immobility), trials of trials [6]: 1/1

CCCCCCCC=O [octanal]
Syringe assays terminating tonic immobility (text) [4]: terminated | Syringe Y (termination of tonic immobility), trials of trials [6]: 1/1

COc1ccc(C=O)cc1OC [veratraldehyde]
Syringe assays with no response [5]: no response | Micropipette assays with a response ([1]; lemon sharks): eight of twelve | Micropipette assays with no response ([1]; lemon sharks): four | Syringe N (no response), trials of trials [6]: one of seven and 1/7 | Syringe Y (termination of tonic immobility), trials of trials [6]: six of seven and six of six and 6/7
